Test results reported in publication PMC7395068, “The evolution of strategies to minimise the risk of human drug-induced liver injury (DILI) in drug discovery and development” (Archives of Toxicology, 2020).
Read-outs that look alike come from different tables or passages of the source.

Tests used:
[1] = cited from earlier work; for DILI +VE (5-8), DILI -VE (-4) / DILI severity category: ref Chen 2016
hLiMTs [2] = conditions: cited from earlier work; for hLiMTs ATP <100uM: In vitro Assay, ref Proctor 2017
HepG2 cells [3] = conditions: cited from earlier work
PHH = conditions: cited from earlier work; for PHH ATP <100uM: In vitro Assay, ref Proctor 2017
human hepatocytes = conditions: In vitro Assay; ref Xu 2008; cited from earlier work
PHH spheroids = conditions: cited from earlier work
[4] = test system: HepG2 C3A spheroid, BSEP, Glu/Gal in HepG2 cells, bioactivation; conditions: cited from earlier work; for Bayesian Machine Learning: In vitro Assay, ref Williams 2019
[5] = cited from earlier work
[6] = ref Chen 2011; cited from earlier work
[7] = read-out: Human plasma Cmax; total plasma Cmax.tot, median of 9 literature references; cited from earlier work
HepaRG spheroids = assay: Combined HCI (HCS) and cellular ATP 3D assay in HepaRG spheroids; conditions: Microtissue model structural based (HCI); combined HCS and ATP, MEC < 25 × Cmax.tot cut-off
hLiMTs [8] = assay: Combined HCI (HCS) and cellular ATP 3D assay in hLiMTs; conditions: Microtissue model structural based (HCI); combined HCS and ATP, MEC < 25 × Cmax.tot cut-off
[9] = test system: HepG2 cells, primary human hepatocytes; conditions: In vitro Assay; ref Garside 2014; cited from earlier work
HepG2 cells [10] = conditions: In vitro Assay; ref O'Brien 2006; cited from earlier work
HepG2 cells [11] = conditions: In vitro Assay; ref Persson 2013; cited from earlier work
[12] = test system: THLE or HepG2 cells, isolated mitochondria, BSEP; conditions: In vitro Assay; ref Aleo 2019; cited from earlier work
[13] = In vitro Assay, ref Tolosa 2012
[14] = In vitro Assay, ref Vorrink 2018

Compound | DILI +VE (5-8), DILI -VE (-4) [1] | DILI severity category [1] | hLiMTs ATP <100uM (hLiMTs [2]) | Structural based (HCI) (HepG2 cells [3]; [13]) | PHH ATP <100uM (PHH) | Structural based (HCI) (human hepatocytes) | hLiMTs ATP <20 x Cmax (PHH spheroids; [14]) | Bayesian Machine Learning [4] | In vivo DILI ([5]; […]) | In vivo DILI ([5]; ref Proctor 2017) | In vivo DILI ([5]; ref Tolosa 2012) | In vivo DILI ([5]; ref Vorrink 2018) | In vivo DILI ([5]; ref Williams 2019) | In vivo DILI ([5]; ref Xu 2008) | DILI Score (FDA) (1-8) [6] | also measured
Cc1ccccc1C(OCCN(C)C)c1ccccc1 (stereo not drawn) [orphenadrine] | -VE | vNo-DILI-Concern | -VE | +VE | -VE | -VE | -VE | -VE | -VE | -VE | +VE | -VE | -VE | -VE |  | 
O=C1NC(=O)C(c2ccccc2)(c2ccccc2)N1 [phenytoin] | +VE | vMost-DILI-Concern |  | +VE |  | +VE | -VE |  | +VE |  | +VE | +VE |  | +VE | 3 | 
CC(C)[N+](C)(CCOC(=O)C1c2ccccc2Oc2ccccc21)C(C)C [propantheline bromide] |  |  |  |  |  |  |  |  |  |  |  |  |  |  |  | DILI severity category (Chen et al. [2016]) ([1]; LTKB DILIrank category, ref Chen et al. 2016): No; DILI severity category (Chen 2016) ([1]; human DILI classification, LTKB DILIrank, ref Chen et al. 2016): No; hLiMTs/100xCmax, Proctor (2017) (hLiMTs [2]; hLiMTs, ATP, IC50 < 100 × Cmax.tot, ref Proctor et al. 2017): -VE; hLiMTs/100uM, Proctor (2017) (hLiMTs [2]; hLiMTs, ATP, IC50 threshold 100 µM, ref Proctor et al. 2017): -VE; Cmax [7]: 440 nM; PHH/100xCmax, Proctor (2017) (PHH; 2D PHH, ATP, IC50 < 100 × Cmax.tot, ref Proctor et al. 2017): -VE; PHH/100uM, Proctor (2017) (PHH; 2D PHH, ATP, IC50 threshold 100 µM, ref Proctor et al. 2017): -VE; DILI prediction HepaRG spheroids (HCS-MEC) (HepaRG spheroids): -VE; Bayesian Machine Learning DILI prediction, Williams (2019) ([4]; Bayesian modeling, ref Williams et al. 2019): -VE; Assigned DILI category ([5]; Chen et al. 2016 or literature alignment, ref Chen et al. 2016): 1; DILI prediction hLiMTs (HCS-MEC) (hLiMTs [8]): -VE
Cc1cn([C@H]2C=C[C@@H](CO)O2)c(=O)[nH]c1=O [stavudine] | +VE | vMost-DILI-Concern | -VE | -VE | -VE | -VE | -VE | +VE | +VE | +VE | +VE | +VE | +VE | +VE | 8 | Cluster 1-6 +VE Assay [9]: -VE; Structural based (HCI) (HepG2 cells [10]): -VE; Cluser analysis (HepG2 cells [11]): -VE; Structural based (HCI) (HepG2 cells [11]): +VE; Partition Hybrid HRM Score [12]: -VE; Ro2 Hybrid HRM Score [12]: -VE; In vivo DILI ([5]; ref Aleo 2019): +VE; In vivo DILI ([5]; ref Garside 2014): +VE; In vivo DILI ([5]; ref O'Brien 2006): +VE; In vivo DILI ([5]; ref Persson 2013): +VE
aflatoxin b1 |  |  |  |  |  |  |  |  |  |  |  |  |  |  |  | Structural based (HCI) (HepG2 cells [3]): +VE; hLiMTs ATP <20 x Cmax (PHH spheroids): +VE (key: +VE: IC20 < 20 × Cmax.tot cut-off); In vivo DILI ([5]; in vivo): +VE
